Activity calls are given as the source filed them.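 Rule for the calls: active = compounds whose mean EC50, the dose giving half the maximal reporter activation, is at or below a set limit; inactive = the rest.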
Target: CHO-CHOP luciferase reporter, UPR activation, luminescence
Assay: CHOP reporter induction, apoptotic UPR branch – CHO-CHOP cells, luciferase luminescence, confirmation (AID 489024);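 note: compounds added alone to reporter cells with no tunicamycin stress co-treatment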

Row | Compound | EC50
1 | Cc1ccc(C)c(N=Cc2c(O)c3ccccc3oc2=O)c1 | 6.28 µM
2 | CN(c1ccccc1)S(=O)(=O)c1cccc(C(=O)NCCc2ccc(O)c(O)c2)c1 | 7.53 µM
3 | COc1ccc(N=c2oc3c(OC)cccc3cc2C(=O)NCc2ccco2)cc1OC | > 80 µM (inactive)
4 | CCOC(=O)c1c(C)oc2c1c(C(c1cccnc1)N1CCCCC1)c(O)c1ccccc12 (centres undefined) | 15.2 µM
5 | O=C(C#Cc1ccccc1)c1cccc([N+](=O)[O-])c1 | 7.41 µM
6 | CC(C)N1CSC(=S)N(Cc2ccccc2)C1 | 10.6 µM
7 | CN(C)C(=O)CSc1cccc2cccnc12 | 8.15 µM
8 | COc1ccc2c(c1)CCc1c(C(=O)Nc3cc(C)n(Cc4ccc(Cl)cc4)n3)noc1-2 | 14 µM
9 | Cn1c(-c2cccc(OCc3ccccc3)c2)nc2c1c(=O)[nH]c(=O)n2Cc1ccccc1 | 13.8 µM
10 | CCN(CC)c1ccc(/C=C2\C(=O)N(c3nnc(C)c(=O)[nH]3)N=C2C)cc1 | inactive
11 | O=C(CN1CCN(c2ccccc2F)CC1)c1ccc(O)c(O)c1 | inactive
12 | COc1ccc(-c2cc(C(F)F)n3ncc(C(=O)n4ccnc4C)c3n2)cc1 | 13.3 µM
13 | Cc1cc(O)c(-c2cc(O)c(C)cc2O)cc1O | > 80 µM (inactive)
14 | CCOC(=O)c1c(-c2ccc(-c3ccccc3)cc2)csc1NC(=O)CNCCN(C)C | 7.71 µM
15 | O=[N+]([O-])c1ccccc1S(=O)(=O)Nc1cccc2cccnc12 | 7.67 µM
16 | Oc1c(C(c2ccccc2Cl)N2CCCC2)ccc2cccnc12 (centres undefined) | 5.76 µM
17 | Cn1nnnc1Sc1ncnc2scc(-c3ccc([N+](=O)[O-])cc3)c12 | 12.3 µM
18 | Cc1ccc(NC(=O)c2nc(S(=O)(=O)Cc3ccccc3C)ncc2Cl)cc1C | 8.51 µM
19 | COc1ccc(NC(=O)c2nc(S(=O)(=O)Cc3cccc(C)c3)ncc2Cl)c(OC)c1 | 11.5 µM
20 | COc1cccc(-n2c(SCC(=O)N3CCc4ccccc43)nnc2-c2c[nH]c3ccccc23)c1 | > 80 µM (inactive)
21 | O=[N+]([O-])c1ccc(C=Nc2ccc(Cl)cc2Cl)s1 | 13.9 µM
22 | Cc1ccc(N2C(=O)NC(=O)/C(=C/c3cnn(-c4ccc(C)cc4)c3)C2=O)cc1 | 16.9 µM
23 | COc1ccc(-c2cc(C(F)(F)F)nc(S(C)(=O)=O)n2)cc1OC | 9.31 µM
24 | Cc1ccccc1S(=O)(=O)NC1OC(=O)C(Cl)=C1Cl (centres undefined) | > 80 µM (inactive)
25 | Cc1ccc(-c2csc3ncnc(Sc4nnc(CN5CCCCCC5=O)o4)c23)cc1 | 17.3 µM
26 | C/C(=N\NC(=O)c1cc(-c2cccs2)nc2ccccc12)c1ccccn1 | 4.97 µM
27 | O=C(c1cccs1)N(C(=O)c1cccs1)c1ccc(Br)cn1 | 13.9 µM

Row | Compound | EC50
28 | N#Cc1cc([N+](=O)[O-])c(-n2nnc3ccccc32)c([N+](=O)[O-])c1 | 18.5 µM
29 | COc1ccc(N=Cc2c(O)c3ccccc3oc2=O)cc1 | 8.64 µM
30 | O=C(N/N=C/c1ccccn1)c1cc(-c2ccccc2)nc2ccccc12 | 5.91 µM
31 | CCCCn1c(/C=N/Nc2nc3ccccc3[nH]2)nc2ccccc21 | 12.3 µM
32 | CC1=NOC(=O)/C1=C\c1ccc(-c2cccc(Cl)c2)o1 | 13.1 µM
33 | CC1CCN(Cc2c(C(=O)N/N=C/c3ccc(C(C)(C)C)cc3)nnn2-c2nonc2N)CC1 | 8.4 µM
34 | Oc1c(C(Nc2ccccn2)c2ccccn2)ccc2cccnc12 (centres undefined) | 12.3 µM
35 | Cc1ccc(CS(=O)(=O)c2ncc(Cl)c(C(=O)Nc3ccc(OC(F)F)cc3)n2)cc1 | > 80 µM (inactive)
36 | COc1ccc(/C=C\c2nc(=O)c3ccccc3o2)cc1 | 8.46 µM
37 | Cc1cc(C(=O)CCl)c(C)n1CCc1ccc(Cl)cc1 | 7.15 µM
38 | Cc1[nH]c2ccccc2c1CN1CCC(Cc2ccccc2)CC1 | 11.1 µM
39 | O=C1C=CC(=O)N1c1ccc(N2CCCCC2)cc1 | > 80 µM (inactive)
40 | O=C(Nc1ccc(S(=O)(=O)N2CCOCC2)cc1)c1ccc([N+](=O)[O-])o1 | 0.98 µM
41 | CCSC1(SCC)N=C(N)C2(C#N)C(c3ccc(F)cc3)C12C#N (centres undefined) | 11 µM
42 | O=C1NC(=O)N(CCc2ccc(F)cc2)C(=O)/C1=C/C=C/c1ccccc1 | 4.74 µM
43 | CCc1ccc(NC(=O)C(CC)Sc2nc3cc4c(cc3c(=O)n2Cc2ccco2)OCO4)cc1 (centres undefined) | 14.9 µM
44 | Cc1ccc(C)c(NC(=O)/C(C#N)=C/c2cn(CC(=O)NCc3ccco3)c3ccccc23)c1 | > 80 µM (inactive)
45 | CCOC(=O)c1ccc(-c2ccc(/C=N/NC(=O)CN(c3cccc(C)c3)S(C)(=O)=O)o2)cc1 | 20 µM
46 | CCCCOC(=O)/C=C\C(=O)NC(N)=O | 13.8 µM
47 | CC1=C/C(=N\OC(=O)/C=C/c2ccccc2)C(C)=CC1=O | > 80 µM (inactive)
48 | Cc1cccnc1Nc1nc(-c2ccc(O)c(O)c2)cs1 | 3.48 µM
49 | Oc1ccc(-c2csc(-c3ccccc3)n2)cc1O | 5.57 µM
50 | COc1ccccc1NC(=O)c1cnc(SCC(=O)NCC2CCCO2)n(C)c1=O (centres undefined) | 14.4 µM
51 | CS(=O)(=O)c1nc(-c2ccccc2)cc(-c2ccccc2)c1C#N | 15.3 µM
52 | O=C(COc1ccc2ccccc2c1)N1CCN(Cc2c[nH]c3ccccc23)CC1 | 13.6 µM
53 | O=C(CN(c1cccc(C(F)(F)F)c1)S(=O)(=O)c1ccc(Cl)c([N+](=O)[O-])c1)NCc1ccc(F)cc1 | 11.7 µM
54 | CC(=O)/C(=C/c1ccccc1)C(=O)Nc1ccccc1C | inactive
